Test results from patent US20260167623A1 (NIKANG THERAPEUTICS, INC., priority 2022, published 2026).

Molecular target: T1, CDK2 (Homo sapiens, UniProt P24941)
T1 construct: High-Throughput Measurement of Cellular Endogenous CDK2; endogenous in cells; host or cells: OVCAR3
Assay: Inhibition of CDK2: phospho-Rb (S807/811) HTRF measurement in OVCAR3 cells, 24 h
Type: cell-based
Conditions: 24 h compound treatment, read-out: pRB_OVCAR3_24h
Protocol: Inhibition of CDK2: Phospho-R^b Measurement in Cells
Phosphorylation of RB protein at S807/811 were measured using HTRF phospho-RB cellular kits (Cat #64RBS807PEG) from Cisbio.
On Day 1, OVCAR3 (CDK2 dependent cell line) cells were seeded into 96-well tissue-culture treated plates at 20,000 cells/well in 200 μL and incubated overnight at 37° C. in CO2 atmosphere. On Day 2, the cells were treated with test compounds at concentrations from 0.3 to 10,000 nM using HP D300 digital dispenser. Twenty-four hours after compound treatment, cell culture media is removed by flicking the plate and tapping the plate against clean paper towel. 30 μL 1× lysis buffer was supplemented from the kit was added to each well and the plate was incubated at room temperature on shaker for 30 min. After homogenization by pipetting up and down, 8 μL cell lysate from 96-well cell culture plate was transferred to 384-well small volume white detection plate. 2 μL premixed detection solution was added and the plate was covered with sealer. To prepare the detection solution, d2 conjugated-phospho-RB antibody and Eu-cryptate conjugated phosphor-RB antibody were diluted into detection buffer following manufacturer's instruction. Detection plates were incubated for 4 h at room temperature and read on ClarioStar (BMG Labtech) in TR-FRET mode (665 nM and 620 nM). The TR-FRET ratio (665 nM/620 nM) was plotted against the compound concentration and normalized to DMSO controls. Half maximal inhibition concentration (IC50) values were calculated with a four-parameter logistic fit using GraphPad Prism (version 8; La Jolla, CA).

Compound | IC50 [nM]
CO[C@@H]1CN(S(=O)(=O)c2cccc(N3CCC(CN4CCC(c5ccc6c(N7CCC(=O)NC7=O)nn(C)c6c5)CC4)CC3)c2)CC[C@H]1Nc1ncc(Cl)cn1 (racemic) [Example 219, Rac-1-(6-(1-((1-(3-(((3R,4R)-4-((5-chloropyrimidin-2-yl)amino)-3-methoxypiperidin-1-yl)sulfonyl)phenyl)piperidin-4-yl)methyl)piperidin-4-yl)-1-methyl-1H-indazol-3-yl)dihydropyrimidine-2,4(1H,3H)-dione] | > 2500
Cn1nc(N2CCC(=O)NC2=O)c2ccc(C3CCN(CC4CCN(c5cccc(S(=O)(=O)N6CC7CCC(C6)C7Nc6ncc(Cl)cn6)c5)CC4)CC3)cc21 (racemic) [Example 229, Rac-1-(6-(1-((1-(3-(((1R,5S,8s)-8-((5-chloropyrimidin-2-yl)amino)-3-azabicyclo[3.2.1]octan-3-yl)sulfonyl)phenyl)piperidin-4-yl)methyl)piperidin-4-yl)-1-methyl-1H-indazol-3-yl)dihydropyrimidine-2,4(1H,3H)-dione] | > 2500
Cn1nc(N2CCC(=O)NC2=O)c2ccc(C3CCN(Cc4cccc(S(=O)(=O)N5CCC(Nc6ncc(C(F)(F)F)cn6)CC5)c4)CC3(F)F)cc21 (stereo not shown) [Example 3, 1-(6-(3,3-difluoro-1-(3-((4-((5-(trifluoromethyl)pyrimidin-2-yl)amino)-piperidin-1-yl)sulfonyl)benzyl)-piperidin-4-yl)-1-methyl-1H-indazol-3-yl)dihydropyrimidine-2,4(1H,3H)-dione] | 100 to 500
Cn1nc(N2CCC(=O)NC2=O)c2ccc(N3CC4(CN(Cc5cccc(S(=O)(=O)N6CCC(Nc7ncc(C(F)(F)F)cn7)CC6)c5)C4)C3)cc21 [Example 4, 1-(1-methyl-6-(6-(3-((4-((5-(trifluoromethyl)pyrimidin-2-yl)amino)piperidin-1-yl)sulfonyl)benzyl)-2,6-diazaspiro[3.3]heptan-2-yl)-1H-indazol-3-yl)dihydropyrimidine-2,4(1H,3H)-dione] | 100 to 500
O=C1CCN(c2nn(CC(F)(F)F)c3cc(C4CCN(Cc5cccc(S(=O)(=O)N6CCC(Nc7ncc(C(F)(F)F)cn7)CC6)c5)CC4)ccc23)C(=O)N1 [Example 5, 1-(1-(2,2,2-trifluoroethyl)-6-(1-(3-((4-((5-(trifluoromethyl)pyrimidin-2-yl)amino)-piperidin-1-yl)sulfonyl)benzyl)-piperidin-4-yl)-1H-indazol-3-yl)dihydropyrimidine-2,4(1H,3H)-dione] | 100 to 500
Cc1ncsc1-c1ccc([C@H](C)NC(=O)[C@@H]2C[C@@H](O)CN2C(=O)[C@@H](NC(=O)CC2CCN(Cc3cccc(S(=O)(=O)N4CCC(Nc5ncc(C(F)(F)F)cn5)CC4)c3)CC2)C(C)(C)C)cc1 [Example 9, (2S,4R)-1-((S)-3,3-dimethyl-2-(2-(1-(3-((4-((5-(trifluoromethyl)pyrimidin-2-yl)amino)piperidin-1-yl)sulfonyl)-benzyl)piperidin-4-yl)acetamido)butanoyl)-4-hydroxy-N-((S)-1-(4-(4-methylthiazol-5-yl)phenyl)ethyl)pyrrolidine-2-carboxamide] | 100 to 500
Cn1nc(N2CCC(=O)NC2=O)c2ccc(C3CCN(Cc4cccc(S(=O)(=O)[C@H]5CC[C@H](Nc6ncc(C(F)(F)F)cn6)CC5)c4)CC3)cc21 [Example 10, 1-(1-methyl-6-(1-(3-(((1r,4r)-4-((5-(trifluoromethyl)pyrimidin-2-yl)amino)-cyclohexyl)sulfonyl)benzyl)piperidin-4-yl)-1H-indazol-3-yl)dihydropyrimidine-2,4(1H,3H)-dione] | 500 to 2500
Cn1nc(N2CCC(=O)NC2=O)c2ccc(N3CCN(Cc4cccc(S(=O)(=O)N5CCC(Nc6ncc(C(F)(F)F)cn6)CC5)c4)CC3)cc21 [Example 12, 1-(1-methyl-6-(4-(3-((4-((5-(trifluoro-methyl)pyrimidin-2-yl)amino)piperidin-1-yl)sulfonyl)benzyl)piperazin-1-yl)-1H-indazol-3-yl)dihydropyrimidine-2,4(1H,3H)-dione] | 100 to 500
Cn1nc(N2CCC(=O)NC2=O)c2ccc(C3CCN(Cc4cccc(S(=O)(=O)N5CCC(Nc6ncc(C(F)F)cn6)CC5)c4)CC3)cc21 [Example 13, 1-(6-(1-(3-((4-((5-(difluoromethyl)-pyrimidin-2-yl)amino)piperidin-1-yl)sulfonyl)benzyl)piperidin-4-yl)-1-methyl-1H-indazol-3-yl)dihydropyrimidine-2,4(1H,3H)-dione] | 100 to 500
Cn1nc(N2CCC(=O)NC2=O)c2ccc(C3CCN(CC4CCN(S(=O)(=O)N5CCC(Nc6ncc(C(F)(F)F)cn6)CC5)CC4)CC3)cc21 [Example 15, 1-(1-methyl-6-(1-((1-((4-((5-(trifluoro-methyl)pyrimidin-2-yl)amino)piperidin-1-yl)sulfonyl)piperidin-4-yl)methyl)piperidin-4-yl)-1H-indazol-3-yl)dihydropyrimidine-2,4(1H,3H)-dione] | 500 to 2500
Cn1nc(N2CCC(=O)NC2=O)c2ccc(C3CCN(Cc4cccc(S(=O)(=O)N5CCC(Nc6ncc(C(C)(F)F)cn6)CC5)c4)CC3)cc21 [Example 17, 1-(6-(1-(3-((4-((5-(1,1-difluoroethyl)-pyrimidin-2-yl)amino)piperidin-1-yl)sulfonyl)benzyl)piperidin-4-yl)-1-methyl-1H-indazol-3-yl)dihydropyrimidine-2,4(1H,3H)-dione] | > 2500
Cn1nc(N2CCC(=O)NC2=O)c2ccc(C3CCN(CC4CCN(S(=O)(=O)c5ccc(Nc6ncc(C(F)(F)F)cn6)c(F)c5)CC4)CC3)cc21 [Example 18, 1-(6-(1-((1-((3-fluoro-4-((5-(trifluoro-methyl)pyrimidin-2-yl)amino)phenyl)-sulfonyl)piperidin-4-yl)methyl)piperidin-4-yl)-1-methyl-1H-indazol-3-yl)dihydropyrimidine-2,4(1H,3H)-dione] | 500 to 2500
Cn1nc(N2CCC(=O)NC2=O)c2ccc(C3CCN(CC4CCN(S(=O)(=O)[C@H]5CC[C@H](Nc6ncc(C(F)(F)F)cn6)CC5)CC4)CC3)cc21 [Example 20, 1-(1-methyl-6-(1-((1-(((1r,4r)-4-((5-(trifluoromethyl)pyrimidin-2-yl)amino)-cyclohexyl)sulfonyl)piperidin-4-yl)methyl)-piperidin-4-yl)-1H-indazol-3-yl)-dihydropyrimidine-2,4(1H,3H)-dione] | 500 to 2500
O=C1CCN(c2nn(CC(F)(F)F)c3cc(C4CCN(Cc5cccc(S(=O)(=O)N6CCC(Nc7ncc(Cl)cn7)CC6)c5)CC4)ccc23)C(=O)N1 [Example 21] | 500 to 2500
O=C1CCC(N2C(=O)c3cc(F)c(N4CCN(Cc5cccc(S(=O)(=O)N6CCC(Nc7ncc(Cl)cn7)CC6)c5)CC4)cc3C2=O)C(=O)N1 (stereo not shown) [Example 22, 5-(4-(3-((4-((5-chloropyrimidin-2-yl)amino)piperidin-1-yl)sulfonyl)benzyl)-piperazin-1-yl)-2-(2,6-dioxopiperidin-3-yl)-6-fluoroisoindoline-1,3-dione] | 500 to 2500
Cn1nc(N2CCC(=O)NC2=O)c2ccc(N3CCN(Cc4cccc(S(=O)(=O)N5CCC(Nc6ncc(Cl)cn6)CC5)c4)CC3)cc21 [Example 25, 1-(6-(4-(3-((4-((5-chloropyrimidin-2-yl)amino)piperidin-1-yl)sulfonyl)benzyl)-piperazin-1-yl)-1-methyl-1H-indazol-3-yl)dihydropyrimidine-2,4(1H,3H)-dione] | 100 to 500
